Laboratory results reported in patent US20240099304A1, “SYNERGISTIC HERBICIDAL COMPOSITIONS OF METAMIFOP” (Parijat Industries (India) Private Limited, priority 2021, published 2024).

Legend:
Assay type in all cases: in vivo
[1] = tested on: Soybean; experiment: Phytotoxicity in Soybean, visual grading on 0-10 scale; conditions: soybean, in vivo
Description: (§1) EFFICACY STUDY: The field experiments were carried out to test the synergy of the combination Metamifop, Imazethapyr, and Imazamox in India at various locations like in MP, Maharashtra, Karnataka, and Telangana on farmer's field against soybean weeds during Kharif season. The experiment comprising of 15 treatments including premixed binary and ternary combinations along with their stand-alone molecule using a randomized block design replicated thrice. All the treatments were applied as post-emergence foliar application when the weeds reached to two to four leaf stage. The spray was conducted with the help of Battery-operated Knapsack sprayer. The percentage efficacy was calculated after 14 and 21 days after application of herbicides.
Phytotoxic effect of herbicidal combination of Metamifop, Imazethapyr and Imazamox in soyabean: Table 5, 10 show the visual observations and grading on phytotoxicity which was recorded for leaf injury on tip/surface, Epinasty/Hyponasty, and wilting etc. on 0-10 scale (as below) at 1, 3, 7, 14 and 21 days after application of the present herbicidal composition.

[2] = tested on: hard to kill broad leaf weeds; experiment: Field efficacy, summary on broad leaf weeds
Description: (§2) As described in the Herbicide Handbook of the Weed Science Society of America, Ninth Edition, 2007, p. 429, “synergism” [is] an interaction of two or more factors such that the effect when combined is greater than the predicted effect based on the response to each factor applied separately. In the Colby method, the expected (or predicted) response of a combination of herbicides is calculated by taking the product of the observed response for each individual component of the combination when applied alone divided by 100 and subtracting this value from the sum of the observed response for each component while applied alone. An unexpected enhancement in efficacy of the combination is then determined by comparing the observed response of the combination to the expected (or predicted) response as calculated from the observed response of each individual component alone. If the observed response of the combination is greater than the expected (or predicted) response, or stated conversely, if the difference between the observed and expected response is greater than zero, then the combination is said to be synergistic or unexpectedly effective. (Colby, S. R., Weeds, 1967(15), p. 20-22). The Colby method required only a single dose of each herbicide applied alone and the mixture of both doses.
as §1

[3] = tested on: Commelina benghalensis; experiment: Field efficacy on broad leaf weed in soybean, post-emergence foliar application
Description: as §2
(§3) Synergy Study: The following formula was used to calculate the expected activity of mixtures containing active ingredients, A and B:
(§4) • A=Observed efficacy of active ingredient (combination of Metamifop and Imidazolinone herbicides) A at the same concentration as used in the mixture. • B=observed efficacy of active ingredient B at the same concentration as used in the mixture. However, following formula was used to calculate the expected activity of mixtures containing three active ingredients, A, B and C:
(§5) • A=observed efficacy of active ingredient (combination of Metamifop and Imidazolinone herbicides) A at the same concentration as used in the mixture. • B=observed efficacy of active ingredient B at the same concentration as used in the mixture. • C=observed efficacy of active ingredient C at the same concentration as used in the mixture.
as §1
(§6) The weeds present in the experimental fields were echinochloa conola, echinochloa crusgalli, brachiaria euriciformis, rottboellia cochinchinensis, cynodon dactylon, parthenium hyterophorus, digera arvensis, cynotis axillaris, acalypha indica, Commelina benghalensis, celosia argentia, cyperus spp.

[4] = tested on: Parthenium hysterophorus; experiment: as above
Description: as §2, §3, §4, §5, §1, §6

[5] = tested on: Cyanotis axillaris; experiment: as above
Description: as §2, §3, §4, §5, §1, §6

[6] = tested on: Rottboellia cochinchinensis; experiment: Field efficacy on grass weed in soybean, post-emergence foliar application
Description: as §2, §3, §4, §5, §1, §6

[7] = tested on: Brachiaria eruciformis; experiment: as above
Description: as §2, §3, §4, §5, §1, §6

[8] = tested on: Echinochloa crusgalli; experiment: as above
Description: as §2, §3, §4, §5, §1, §6

[9] = 14 DAA, Imazethapyr 35 gm ai/ha
[10] = 14 DAA, Imazethapyr 40 gm ai/ha
[11] = 14 DAA, Imazethapyr 50 gm ai/ha
[12] = 14 DAA, Imazethapyr 75.375 gm ai/ha
[13] = 21 DAA, Imazethapyr 35 gm ai/ha
[14] = 21 DAA, Imazethapyr 40 gm ai/ha
[15] = 21 DAA, Imazethapyr 50 gm ai/ha
[16] = 21 DAA, Imazethapyr 75.375 gm ai/ha

## CCc1cnc(C2=NC(C)(C(C)C)C(=O)N2)c(C(=O)O)c1 (stereo not shown) [Imazethapyr]
[1]; 1 days after application
  Phytotoxicity score: 0
[1]; 3 days after application
  Phytotoxicity score: 0
[1]; 7 days after application
  Phytotoxicity score: 0
[1]; 14 days after application
  Phytotoxicity score: 0
[1]; 21 days after application
  Phytotoxicity score: 0
[2]; at 14 days
  Control on targeted weeds, applied alone: no or very less control
[2]; at 21 days
  Control on targeted weeds, applied alone: no or very less control
[3]; [9]
  % Weed control burn down symptoms generation Observed: 6%
[3]; [10]
  % Weed control burn down symptoms generation Observed: 22%
[3]; [11]
  % Weed control burn down symptoms generation Observed: 35%
[3]; [12]
  % Weed control burn down symptoms generation Observed: 56%
[3]; [13]
  % Weed control burn down symptoms generation Observed: 0%
[3]; [14]
  % Weed control burn down symptoms generation Observed: 13%
[3]; [15]
  % Weed control burn down symptoms generation Observed: 20%
[3]; [16]
  % Weed control burn down symptoms generation Observed: 45%
[4]; [9]
  % Weed control burn down symptoms generation Observed: 0%
[4]; [10]
  % Weed control burn down symptoms generation Observed: 6%
[4]; [11]
  % Weed control burn down symptoms generation Observed: 11%
[4]; [12]
  % Weed control burn down symptoms generation Observed: 28%
[4]; [13]
  % Weed control burn down symptoms generation Observed: 0%
[4]; [14]
  % Weed control burn down symptoms generation Observed: 4%
[4]; [15]
  % Weed control burn down symptoms generation Observed: 6%
[4]; [16]
  % Weed control burn down symptoms generation Observed: 15%
[5]; [9]
  % Weed control burn down symptoms generation Observed: 12%
[5]; [10]
  % Weed control burn down symptoms generation Observed: 25%
[5]; [11]
  % Weed control burn down symptoms generation Observed: 447%
[5]; [12]
  % Weed control burn down symptoms generation Observed: 0%
[5]; [13]
  % Weed control burn down symptoms generation Observed: 0%
[5]; [14]
  % Weed control burn down symptoms generation Observed: 7%
[5]; [15]
  % Weed control burn down symptoms generation Observed: 20%
[5]; [16]
  % Weed control burn down symptoms generation Observed: 36%
[6]; [9]
  % Weed control burn down symptoms generation Observed: 0%
[6]; [10]
  % Weed control burn down symptoms generation Observed: 0%
[6]; [11]
  % Weed control burn down symptoms generation Observed: 25%
[6]; [12]
  % Weed control burn down symptoms generation Observed: 30%
[6]; [13]
  % Weed control burn down symptoms generation Observed: 0%
[6]; [14]
  % Weed control burn down symptoms generation Observed: 0%
[6]; [15]
  % Weed control burn down symptoms generation Observed: 0%
[6]; [16]
  % Weed control burn down symptoms generation Observed: 0%
[7]; [9]
  % Weed control burn down symptoms generation Observed: 8%
[7]; [10]
  % Weed control burn down symptoms generation Observed: 10%
[7]; [11]
  % Weed control burn down symptoms generation Observed: 20%
[7]; [12]
  % Weed control burn down symptoms generation Observed: 22%
[7]; [13]
  % Weed control burn down symptoms generation Observed: 0%
[7]; [14]
  % Weed control burn down symptoms generation Observed: 0%
[7]; [15]
  % Weed control burn down symptoms generation Observed: 0%
[7]; [16]
  % Weed control burn down symptoms generation Observed: 15%
[8]; [9]
  % Weed control burn down symptoms generation Observed: 15%
[8]; [10]
  % Weed control burn down symptoms generation Observed: 18%
[8]; [11]
  % Weed control burn down symptoms generation Observed: 18%
[8]; [12]
  % Weed control burn down symptoms generation Observed: 20%
[8]; [13]
  % Weed control burn down symptoms generation Observed: 8%
[8]; [14]
  % Weed control burn down symptoms generation Observed: 12%
[8]; [15]
  % Weed control burn down symptoms generation Observed: 16%
[8]; [16]
  % Weed control burn down symptoms generation Observed: 18%
